Experimental data published in PubChem BioAssay (NCI).
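The compound was tested at five concentrations on cells cultured in 96-well plates, with a 48-hour exposure period. At the TGI there is no net growth.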

Tests used:
Experiment in all cases: NCI anticancer screen, dose series, 48 h
CCRF-CEM leukemia = test system: CCRF-CEM leukemia
RXF 393 renal = test system: RXF 393 renal
SF-295 CNS = test system: SF-295 CNS
M14 melanoma = test system: M14 melanoma
SR leukemia = test system: SR leukemia
SN12C renal = test system: SN12C renal
UACC-62 melanoma = test system: UACC-62 melanoma
OVCAR-8 ovarian = test system: OVCAR-8 ovarian
MALME-3M melanoma = test system: MALME-3M melanoma
HT29 colon = test system: HT29 colon
UO-31 renal = test system: UO-31 renal
OVCAR-3 ovarian = test system: OVCAR-3 ovarian
SF-539 CNS = test system: SF-539 CNS
SK-MEL-2 melanoma = test system: SK-MEL-2 melanoma
HOP-92 NSCLC = test system: HOP-92 NSCLC
MOLT-4 leukemia = test system: MOLT-4 leukemia
HOP-62 NSCLC = test system: HOP-62 NSCLC
UACC-257 melanoma = test system: UACC-257 melanoma
EKVX NSCLC = test system: EKVX NSCLC
IGROV1 ovarian = test system: IGROV1 ovarian
OVCAR-4 ovarian = test system: OVCAR-4 ovarian
SNB-75 CNS = test system: SNB-75 CNS
HL-60(TB) leukemia = test system: HL-60(TB) leukemia
HCT-116 colon = test system: HCT-116 colon
OVCAR-5 ovarian = test system: OVCAR-5 ovarian
COLO 205 colon = test system: COLO 205 colon
NCI-H23 lung = test system: NCI-H23 lung
KM20L2 colon = test system: KM20L2 colon
SK-OV-3 ovarian = test system: SK-OV-3 ovarian
A549 NSCLC = test system: A549 NSCLC
U251 CNS = test system: U251 CNS
TK-10 renal = test system: TK-10 renal
SK-MEL-28 melanoma = test system: SK-MEL-28 melanoma
RPMI-8226 leukemia = test system: RPMI-8226 leukemia
KM12 colon = test system: KM12 colon
XF 498 CNS = test system: XF 498 CNS
M19-MEL melanoma = test system: M19-MEL melanoma
DLD-1 colon = test system: DLD-1 colon
LXFL 529 NSCLC = test system: LXFL 529 NSCLC
NCI-H460 lung = test system: NCI-H460 lung
K-562 leukemia = test system: K-562 leukemia
NCI-H522 lung = test system: NCI-H522 lung
SW-620 colon = test system: SW-620 colon
SK-MEL-5 melanoma = test system: SK-MEL-5 melanoma
SNB-19 CNS = test system: SNB-19 CNS
SF-268 CNS = test system: SF-268 CNS
MCF7 breast = test system: MCF7 breast
BT-549 breast = test system: BT-549 breast
HS 578T breast = test system: HS 578T breast
NCI-H226 lung = test system: NCI-H226 lung
DU-145 prostate = test system: DU-145 prostate
HCT-15 colon = test system: HCT-15 colon
MDA-N = test system: MDA-N
ACHN renal = test system: ACHN renal
A498 renal = test system: A498 renal
MDA-MB-435 = test system: MDA-MB-435
NCI/ADR-RES ovarian = test system: NCI/ADR-RES ovarian
HCC-2998 colon = test system: HCC-2998 colon
786-0 renal = test system: 786-0 renal
CAKI-1 renal = test system: CAKI-1 renal
MDA-MB-231 breast = test system: MDA-MB-231 breast
PC-3 prostate = test system: PC-3 prostate
LOX IMVI melanoma = test system: LOX IMVI melanoma
T-47D breast = test system: T-47D breast

O=C1C(Cl)N(c2c(Cl)cccc2Cl)C1c1c[nH]c2ccccc12 (stereo not given)
TGI (CCRF-CEM leukemia): > 100 µM | TGI (RXF 393 renal): > 100 µM | TGI (SF-295 CNS): > 100 µM | TGI (M14 melanoma): > 100 µM | TGI (SR leukemia): > 100 µM | TGI (SN12C renal): > 100 µM | TGI (UACC-62 melanoma): > 100 µM | TGI (OVCAR-8 ovarian): > 100 µM | TGI (MALME-3M melanoma): > 100 µM | TGI (HT29 colon): > 100 µM | TGI (UO-31 renal): > 100 µM | TGI (OVCAR-3 ovarian): > 100 µM | TGI (SF-539 CNS): > 100 µM | TGI (SK-MEL-2 melanoma): > 100 µM | TGI (HOP-92 NSCLC): > 100 µM | TGI (MOLT-4 leukemia): > 100 µM | TGI (HOP-62 NSCLC): > 100 µM | TGI (UACC-257 melanoma): > 100 µM | TGI (EKVX NSCLC): > 100 µM | TGI (IGROV1 ovarian): > 100 µM | TGI (OVCAR-4 ovarian): > 100 µM | TGI (SNB-75 CNS): > 100 µM | TGI (HL-60(TB) leukemia): > 100 µM | TGI (HCT-116 colon): > 100 µM | TGI (OVCAR-5 ovarian): > 100 µM | TGI (COLO 205 colon): > 100 µM | TGI (NCI-H23 lung): > 100 µM | TGI (KM20L2 colon): > 100 µM | TGI (SK-OV-3 ovarian): > 100 µM | TGI (A549 NSCLC): > 100 µM | TGI (U251 CNS): > 100 µM | TGI (TK-10 renal): > 100 µM | TGI (SK-MEL-28 melanoma): > 100 µM | TGI (RPMI-8226 leukemia): > 100 µM | TGI (KM12 colon): > 100 µM | TGI (XF 498 CNS): > 100 µM | TGI (M19-MEL melanoma): > 100 µM | TGI (DLD-1 colon): > 100 µM | TGI (LXFL 529 NSCLC): > 100 µM | TGI (NCI-H460 lung): > 100 µM | TGI (K-562 leukemia): > 100 µM | TGI (NCI-H522 lung): > 100 µM | TGI (SW-620 colon): > 100 µM | TGI (SK-MEL-5 melanoma): > 100 µM | TGI (SNB-19 CNS): > 100 µM | TGI (SF-268 CNS): > 100 µM

CC1=NN=C(C)C1N=Nc1ccc2nc(C)[nH]c2c1
TGI (MCF7 breast): > 100 µM | TGI (BT-549 breast): > 100 µM | TGI (HS 578T breast): 29.4 µM | TGI (CCRF-CEM leukemia): > 100 µM | TGI (RXF 393 renal): 55.5 µM | TGI (NCI-H226 lung): 34.8 µM | TGI (SF-295 CNS): > 75.1 µM | TGI (M14 melanoma): > 100 µM | TGI (SR leukemia): 48.3 µM | TGI (SN12C renal): > 100 µM | TGI (UACC-62 melanoma): > 79.8 µM | TGI (DU-145 prostate): > 100 µM | TGI (OVCAR-8 ovarian): > 100 µM | TGI (MALME-3M melanoma): > 50.5 µM | TGI (HT29 colon): > 100 µM | TGI (UO-31 renal): 77.5 µM | TGI (OVCAR-3 ovarian): > 73.6 µM | TGI (HCT-15 colon): > 100 µM | TGI (SF-539 CNS): > 88.6 µM | TGI (SK-MEL-2 melanoma): 36.3 µM | TGI (HOP-92 NSCLC): 65.4 µM | TGI (MDA-N): > 100 µM | TGI (MOLT-4 leukemia): > 85.9 µM | TGI (HOP-62 NSCLC): > 100 µM | TGI (UACC-257 melanoma): > 100 µM | TGI (EKVX NSCLC): > 71.3 µM | TGI (IGROV1 ovarian): 29.7 µM | TGI (OVCAR-4 ovarian): > 100 µM | TGI (ACHN renal): > 76.8 µM | TGI (SNB-75 CNS): 64.4 µM | TGI (HL-60(TB) leukemia): > 100 µM | TGI (A498 renal): 38.2 µM | TGI (MDA-MB-435): > 100 µM | TGI (HCT-116 colon): > 72.5 µM | TGI (OVCAR-5 ovarian): > 100 µM | TGI (COLO 205 colon): > 100 µM | TGI (NCI-H23 lung): > 100 µM | TGI (NCI/ADR-RES ovarian): > 100 µM | TGI (SK-OV-3 ovarian): 24.2 µM | TGI (A549 NSCLC): > 100 µM | TGI (U251 CNS): > 100 µM | TGI (HCC-2998 colon): > 100 µM | TGI (TK-10 renal): > 100 µM | TGI (SK-MEL-28 melanoma): > 100 µM | TGI (RPMI-8226 leukemia): > 100 µM | TGI (KM12 colon): > 100 µM | TGI (786-0 renal): > 100 µM | TGI (CAKI-1 renal): > 44.7 µM | TGI (MDA-MB-231 breast): > 88.2 µM | TGI (PC-3 prostate): > 100 µM | TGI (NCI-H460 lung): > 100 µM | TGI (LOX IMVI melanoma): > 63.9 µM | TGI (K-562 leukemia): > 100 µM | TGI (NCI-H522 lung): > 100 µM | TGI (SW-620 colon): > 100 µM | TGI (SK-MEL-5 melanoma): > 63.8 µM | TGI (SNB-19 CNS): > 100 µM | TGI (SF-268 CNS): > 83.1 µM | TGI (T-47D breast): 54.8 µM
